Data on three compounds can be found in patent EP0908457B1, “3-(1,2-benzisothiazol- and isoxazol-5-Y1)-2,4(1H,3H)-pyrimidinedione or thione and 3-(1,2-benzisothiazol- and isoxazol-5-y1)-4(3H)-pyrimidinone or thione herbicidal agents” (BASF AKTIENGESELLSCHAFT, priority 1997, dated 1999).

Structures are written as SMILES.

In data set [1] the test system is Echinochloa oryzoides (Ard.) Fritsch. Nature of the data set: Preemergence weed control under flooded paddy conditions, ECHORC (Watergrass (Calif.)). On herbicidal effect rating, ECHORC: meaning of each grade not given here. It counts as in vivo. As to conditions: flooded paddy, rated three to four weeks after treatment; for ECHORC herbicidal rating: preemergence; for herbicidal effect rating, ECHORC: preemergence weeds.
Data set [2] has as its system Cyperus serotinus, Rottb. The data set is described as follows: Preemergence weed control under flooded paddy conditions, CYPSE (Flatsedge). On herbicidal effect rating, CYPSE: meaning of each grade not given here. It counts as in vivo. The settings on record: rated three to four weeks after treatment; for CYPSE herbicidal rating: preemergence; for herbicidal effect rating, CYPSE: preemergence weeds.
Data set [3] concerns Oryza sativa, (L.) Tebonnet. Nature of the data set: Rice tolerance to post-transplant applications under flooded paddy conditions (Example 187), ORYSAT (Rice, Tebonnet). As to conditions: rated three to four weeks after treatment.
The next data set has as its system Sagittaria pygmaea, L. Nature of the data set: Preemergence weed control under flooded paddy conditions, SAGPY (Arrowhead (Pygmaea)). On herbicidal effect rating, SAGPY: meaning of each grade not given here. It counts as in vivo. As to conditions: flooded paddy, rated three to four weeks after treatment; for SAGPY herbicidal rating: preemergence; for herbicidal effect rating, SAGPY: preemergence weeds.
The test system of data set [4] is Monochoria vaginalis, Presl. Nature of the data set: Preemergence weed control under flooded paddy conditions, MOOVA (Monochoria). On herbicidal effect rating, MOOVA: meaning of each grade not given here. It counts as in vivo. As to conditions: flooded paddy, rated three to four weeks after treatment; for MOOVA herbicidal rating: preemergence; for herbicidal effect rating, MOOVA: preemergence weeds.
Another data set deals with Cyperus iria. The data set is described as follows: Preemergence weed control under flooded paddy conditions, CYPIR (Rice Flatsedge). On herbicidal effect rating, CYPIR: meaning of each grade not given here. It counts as in vivo. The settings on record: flooded paddy, rated three to four weeks after treatment; for CYPIR herbicidal rating: preemergence; for herbicidal effect rating, CYPIR: preemergence weeds.

As to `COc1cc(Cl)c(C)cc1-c1nsc2ccc(-n3c(=O)cc(C(F)(F)F)n(C)c3=O)cc12` [Example 506, 2,4(1H,3H)-Pyrimidinedione, 3-[3-(4-chloro-6-methoxy-m-tolyl)-1,2-benzisothiazol-5-yl]-1-methyl-6-(trifluoromethyl)-], the ECHORC herbicidal rating in data set [1] (0.0320 kg/ha) turned out to be 7.5; in data set [1] (0.0620 kg/ha), 9.0; in data set [1] (0.1250 kg/ha), 9.0; in data set [1] (0.2500 kg/ha), 9.0. In addition, the CYPSE herbicidal rating in data set [2] (0.0320 kg/ha) is listed as 4.5; in data set [2] (0.0620 kg/ha), 4.5; in data set [2] (0.1250 kg/ha), 4.5; in data set [2] (0.2500 kg/ha) it was 7.0. In addition, the “ORYSAT herbicidal rating (rice tolerance)” value is on record as 1.5 in data set [3] (0.0320 kg/ha), 1.5 in data set [3] (0.0620 kg/ha), 1.5 in data set [3] (0.1250 kg/ha) and 2.0 in data set [3] (0.2500 kg/ha). Moreover, the SAGPY herbicidal rating came to 2.5 with Sagittaria pygmaea, L. (0.0320 kg/ha); 3.0 with Sagittaria pygmaea, L. (0.0620 kg/ha); 3.0 in the data set with Sagittaria pygmaea, L. (0.1250 kg/ha); 4.5 in the data set with Sagittaria pygmaea, L. (0.2500 kg/ha). In addition, the MOOVA herbicidal rating turned out to be 8.0 in data set [4] (0.0320 kg/ha), 9.0 in data set [4] (0.0620 kg/ha), 9.0 in data set [4] (0.1250 kg/ha) and 9.0 in data set [4] (0.2500 kg/ha). The CYPIR herbicidal rating in the data set on Cyperus iria (0.0320 kg/ha) turned out to be 6.5; with Cyperus iria (0.0620 kg/ha), 8.0; in the data set with Cyperus iria (0.1250 kg/ha), 9.0; in the data set on Cyperus iria (0.2500 kg/ha) it was 9.0.

As to `CCOCc1nsc2ccc(-n3c(=O)cc(C(F)(F)F)n(C)c3=O)cc12` [Example 195, 3-[3-(Ethoxymethyl)-1,2-benzisothiazol-5-yl]-1-methyl-6-(trifluoromethyl)-2,4(1H,3H)-pyrimidinedione], the “herbicidal effect rating, ECHORC” value was 2.0 in data set [1] (0.0313 kg/ha), 3.0 in data set [1] (0.0625 kg/ha), 6.0 in data set [1] (0.1250 kg/ha) and 9.0 in data set [1] (0.2500 kg/ha). For the same compound, the “herbicidal effect rating, CYPSE” value is listed as 0.0 in data set [2] (0.0313 kg/ha), 0.0 in data set [2] (0.0625 kg/ha), 2.0 in data set [2] (0.1250 kg/ha) and 7.0 in data set [2] (0.2500 kg/ha). Also, the “herbicidal effect rating, ORYSAT (rice tolerance)” value in data set [3] (0.0313 kg/ha) was determined as 6.0; in data set [3] (0.0625 kg/ha), 7.0; in data set [3] (0.1250 kg/ha) it was 9.0; in data set [3] (0.2500 kg/ha), 9.0. The “herbicidal effect rating, SAGPY” value in the data set with Sagittaria pygmaea, L. (0.0313 kg/ha) amounted to 0.0; in the data set with Sagittaria pygmaea, L. (0.0625 kg/ha) it was 0.0; with Sagittaria pygmaea, L. (0.1250 kg/ha) it was 1.0; in the data set on Sagittaria pygmaea, L. (0.2500 kg/ha), 2.0. In addition, the “herbicidal effect rating, MOOVA” value in data set [4] (0.0313 kg/ha), in data set [4] (0.0625 kg/ha), in data set [4] (0.1250 kg/ha) and in data set [4] (0.2500 kg/ha) was 9.0 in each case. In addition, the “herbicidal effect rating, CYPIR” value with Cyperus iria (0.0313 kg/ha) amounted to 0.0; in the data set on Cyperus iria (0.0625 kg/ha), 2.0; in the data set on Cyperus iria (0.1250 kg/ha), 4.0; in the data set on Cyperus iria (0.2500 kg/ha) it was 9.0.

For the compound `CC(C)N(C(C)C)S(=O)(=O)NC(=O)c1nsc2ccc(-n3c(=O)cc(C(F)(F)F)n(C)c3=O)cc12` [Example 500, 1,2-Benzisothiazole-3-carboxamide, 5-[3,6-dihydro-3-methyl-2,6-dioxo-4-(trifluoromethyl)-1(2H)-pyrimidinyl)-N-(diisopropylsulfamoyl)-], the ECHORC herbicidal rating turned out to be 4.0 in data set [1] (0.0320 kg/ha), 6.0 in data set [1] (0.0620 kg/ha), 7.0 in data set [1] (0.1250 kg/ha) and 9.0 in data set [1] (0.2500 kg/ha). For the same compound, the CYPSE herbicidal rating in data set [2] (0.0320 kg/ha), in data set [2] (0.0620 kg/ha), in data set [2] (0.1250 kg/ha) and in data set [2] (0.2500 kg/ha) was 0.0 in each case. For the same compound, the “ORYSAT herbicidal rating (rice tolerance)” value in data set [3] (0.0320 kg/ha), in data set [3] (0.0620 kg/ha), in data set [3] (0.1250 kg/ha) and in data set [3] (0.2500 kg/ha) was 2.0 throughout. Further, the SAGPY herbicidal rating is listed as 5.0 in the data set with Sagittaria pygmaea, L. (0.0320 kg/ha); 7.0 in the data set with Sagittaria pygmaea, L. (0.0620 kg/ha); 7.0 in the data set with Sagittaria pygmaea, L. (0.1250 kg/ha); 9.0 in the data set with Sagittaria pygmaea, L. (0.2500 kg/ha). For the same compound, the MOOVA herbicidal rating in data set [4] (0.0320 kg/ha) is on record as 7.0; in data set [4] (0.0620 kg/ha), 9.0; in data set [4] (0.1250 kg/ha), 9.0; in data set [4] (0.2500 kg/ha), 9.0. Also, the CYPIR herbicidal rating in the data set on Cyperus iria (0.0320 kg/ha) is reported as 6.0; in the data set with Cyperus iria (0.0620 kg/ha), 6.0; in the data set with Cyperus iria (0.1250 kg/ha) it was 6.0; in the data set with Cyperus iria (0.2500 kg/ha) it was 9.0.
